Like-named read-outs stand apart in the source and are kept apart here.
Key:
ROCK1 = ROCK1 (Homo sapiens (Human), UniProt Q13464); experiment: Z'Lyte assay, ROCK1 inhibition at a single concentration; type: biochemical
LIMK1 = LIMK1 (Homo sapiens (Human), UniProt P53667); experiment: Lanthascreen Eu binding assay (TR-FRET), inhibition of LIMK1
ROCK2 = ROCK2 (Homo sapiens (Human), UniProt O75116); experiment: Z'Lyte assay, ROCK2 inhibition at a single concentration; type: biochemical
LIMK2 = LIMK2 (Homo sapiens (Human), UniProt P53671); experiment: Lanthascreen Eu binding assay (TR-FRET), inhibition of LIMK2
Chain of LIMK2 (P53671 whole entry): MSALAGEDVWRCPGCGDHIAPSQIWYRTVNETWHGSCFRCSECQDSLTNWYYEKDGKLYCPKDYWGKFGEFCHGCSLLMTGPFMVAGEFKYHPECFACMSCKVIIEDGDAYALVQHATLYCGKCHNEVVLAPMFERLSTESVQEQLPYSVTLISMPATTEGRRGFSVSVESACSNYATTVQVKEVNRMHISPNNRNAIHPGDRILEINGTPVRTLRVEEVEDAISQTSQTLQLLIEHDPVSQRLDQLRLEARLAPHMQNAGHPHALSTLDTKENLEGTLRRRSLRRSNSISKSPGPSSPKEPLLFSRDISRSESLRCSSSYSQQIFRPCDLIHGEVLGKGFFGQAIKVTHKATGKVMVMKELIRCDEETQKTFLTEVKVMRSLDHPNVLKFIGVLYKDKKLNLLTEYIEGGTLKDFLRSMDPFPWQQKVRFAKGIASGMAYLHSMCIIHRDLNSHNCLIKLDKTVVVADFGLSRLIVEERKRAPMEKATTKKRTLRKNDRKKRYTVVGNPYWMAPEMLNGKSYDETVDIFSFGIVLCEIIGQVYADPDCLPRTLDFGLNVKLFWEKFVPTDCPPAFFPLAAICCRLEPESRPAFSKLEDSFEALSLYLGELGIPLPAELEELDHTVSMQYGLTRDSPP

[1] = read-out: % inhibition (ROCK1) 1 uM, 1 uM
[2] = read-out: % inhibition (ROCK2) 1 uM, 1 uM
[3] = read-out: % inhibition (ROCK1) 1 uM
[4] = read-out: % inhibition (ROCK2) 1 uM

Chain of LIMK1 (P53667 whole entry): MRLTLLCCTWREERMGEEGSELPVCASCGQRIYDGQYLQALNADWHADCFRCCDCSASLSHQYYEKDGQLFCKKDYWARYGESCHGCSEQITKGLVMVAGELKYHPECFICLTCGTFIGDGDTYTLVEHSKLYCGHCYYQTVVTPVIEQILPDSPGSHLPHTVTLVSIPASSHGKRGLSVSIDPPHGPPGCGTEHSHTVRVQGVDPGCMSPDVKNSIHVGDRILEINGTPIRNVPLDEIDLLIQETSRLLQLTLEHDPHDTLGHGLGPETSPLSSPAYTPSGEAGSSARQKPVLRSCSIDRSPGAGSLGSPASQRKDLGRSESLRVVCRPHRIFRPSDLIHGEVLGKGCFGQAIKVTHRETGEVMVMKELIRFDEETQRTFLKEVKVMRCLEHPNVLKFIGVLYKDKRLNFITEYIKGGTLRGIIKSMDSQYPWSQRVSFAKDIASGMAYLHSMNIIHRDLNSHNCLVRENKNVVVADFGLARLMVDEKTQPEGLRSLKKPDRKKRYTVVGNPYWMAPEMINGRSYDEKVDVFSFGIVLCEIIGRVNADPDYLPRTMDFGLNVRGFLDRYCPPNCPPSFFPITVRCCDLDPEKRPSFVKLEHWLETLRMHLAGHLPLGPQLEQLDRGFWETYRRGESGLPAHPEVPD
Chain of ROCK2 (O75116 whole entry): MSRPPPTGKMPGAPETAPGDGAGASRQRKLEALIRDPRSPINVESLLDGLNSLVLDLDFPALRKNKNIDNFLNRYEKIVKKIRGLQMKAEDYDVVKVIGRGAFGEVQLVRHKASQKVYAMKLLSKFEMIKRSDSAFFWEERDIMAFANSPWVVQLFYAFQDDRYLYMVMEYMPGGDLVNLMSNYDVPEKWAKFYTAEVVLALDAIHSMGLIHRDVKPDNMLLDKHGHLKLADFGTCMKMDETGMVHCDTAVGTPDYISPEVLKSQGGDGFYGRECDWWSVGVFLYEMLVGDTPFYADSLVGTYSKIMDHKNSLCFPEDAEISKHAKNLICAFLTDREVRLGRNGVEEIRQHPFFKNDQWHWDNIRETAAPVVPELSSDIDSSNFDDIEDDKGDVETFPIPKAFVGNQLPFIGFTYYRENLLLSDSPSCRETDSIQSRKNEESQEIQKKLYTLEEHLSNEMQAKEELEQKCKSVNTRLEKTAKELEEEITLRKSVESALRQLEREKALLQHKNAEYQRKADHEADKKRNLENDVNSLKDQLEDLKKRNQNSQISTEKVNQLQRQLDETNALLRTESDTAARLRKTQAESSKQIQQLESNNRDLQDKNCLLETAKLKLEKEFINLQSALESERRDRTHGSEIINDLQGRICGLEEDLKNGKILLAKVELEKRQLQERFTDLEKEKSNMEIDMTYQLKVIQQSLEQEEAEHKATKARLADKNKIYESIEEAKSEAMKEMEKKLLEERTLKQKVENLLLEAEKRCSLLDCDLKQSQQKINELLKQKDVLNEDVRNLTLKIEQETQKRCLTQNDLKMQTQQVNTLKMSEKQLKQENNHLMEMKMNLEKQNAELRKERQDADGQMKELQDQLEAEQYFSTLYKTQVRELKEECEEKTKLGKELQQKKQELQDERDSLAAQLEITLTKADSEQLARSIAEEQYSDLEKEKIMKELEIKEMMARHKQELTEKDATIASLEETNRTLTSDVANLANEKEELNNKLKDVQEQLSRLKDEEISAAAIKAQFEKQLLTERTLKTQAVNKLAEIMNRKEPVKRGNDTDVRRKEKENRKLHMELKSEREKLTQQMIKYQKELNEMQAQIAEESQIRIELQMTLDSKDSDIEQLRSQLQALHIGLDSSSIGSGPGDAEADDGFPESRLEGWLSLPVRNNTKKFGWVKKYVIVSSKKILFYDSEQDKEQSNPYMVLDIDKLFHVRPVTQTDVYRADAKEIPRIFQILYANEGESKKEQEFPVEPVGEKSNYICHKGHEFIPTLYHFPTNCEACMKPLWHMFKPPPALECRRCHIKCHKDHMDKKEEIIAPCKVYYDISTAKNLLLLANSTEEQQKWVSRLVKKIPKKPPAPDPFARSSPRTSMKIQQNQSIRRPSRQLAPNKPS
Chain of ROCK1 (Q13464 whole entry): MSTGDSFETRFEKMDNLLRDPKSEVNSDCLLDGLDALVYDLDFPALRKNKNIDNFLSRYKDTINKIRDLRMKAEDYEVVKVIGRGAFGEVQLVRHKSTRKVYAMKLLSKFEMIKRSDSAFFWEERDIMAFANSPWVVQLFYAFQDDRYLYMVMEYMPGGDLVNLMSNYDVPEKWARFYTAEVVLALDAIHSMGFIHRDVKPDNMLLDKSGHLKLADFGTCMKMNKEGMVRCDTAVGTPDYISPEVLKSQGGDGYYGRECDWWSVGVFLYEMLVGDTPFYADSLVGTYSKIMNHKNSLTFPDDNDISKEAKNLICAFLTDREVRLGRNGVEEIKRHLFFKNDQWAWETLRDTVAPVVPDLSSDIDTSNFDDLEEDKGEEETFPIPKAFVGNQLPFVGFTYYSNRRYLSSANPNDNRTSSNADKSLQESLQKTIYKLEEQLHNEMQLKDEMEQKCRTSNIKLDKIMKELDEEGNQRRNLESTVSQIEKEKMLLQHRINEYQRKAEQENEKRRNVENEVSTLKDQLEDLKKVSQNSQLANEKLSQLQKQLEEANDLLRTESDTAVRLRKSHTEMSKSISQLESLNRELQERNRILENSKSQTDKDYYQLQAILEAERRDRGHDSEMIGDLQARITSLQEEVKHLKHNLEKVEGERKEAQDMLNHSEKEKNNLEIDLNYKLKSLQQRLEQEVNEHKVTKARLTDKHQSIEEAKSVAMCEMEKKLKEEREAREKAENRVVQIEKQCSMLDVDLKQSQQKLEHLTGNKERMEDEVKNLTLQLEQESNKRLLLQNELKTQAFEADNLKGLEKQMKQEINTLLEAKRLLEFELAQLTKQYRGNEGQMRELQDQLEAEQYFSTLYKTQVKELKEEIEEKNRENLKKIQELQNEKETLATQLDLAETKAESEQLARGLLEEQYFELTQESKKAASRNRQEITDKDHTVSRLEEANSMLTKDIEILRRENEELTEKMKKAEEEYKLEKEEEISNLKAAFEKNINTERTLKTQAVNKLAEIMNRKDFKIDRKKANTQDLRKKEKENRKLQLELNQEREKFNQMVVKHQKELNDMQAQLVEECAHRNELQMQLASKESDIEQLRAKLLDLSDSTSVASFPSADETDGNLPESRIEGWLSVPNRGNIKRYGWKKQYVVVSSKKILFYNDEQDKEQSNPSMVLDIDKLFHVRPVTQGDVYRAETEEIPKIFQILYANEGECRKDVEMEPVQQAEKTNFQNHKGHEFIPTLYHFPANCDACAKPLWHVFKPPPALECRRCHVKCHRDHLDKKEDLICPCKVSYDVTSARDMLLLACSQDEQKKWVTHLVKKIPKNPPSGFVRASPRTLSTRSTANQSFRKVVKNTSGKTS

Structure (SMILES) | inhibition at 1 µM (ROCK1; [1]) | Ki (LIMK1; Lanthascreen Eu binding assay) | inhibition at 1 µM (ROCK2; [2]) | Ki (LIMK2; Lanthascreen Eu binding assay) | inhibition at 1 µM (ROCK1; [3]) | inhibition at 1 µM (ROCK2; [4]) | Ki (LIMK1) | Ki (LIMK2) | % inhibition (ROCK1) 1 uM (ROCK1) | % inhibition (ROCK2) 1 uM (ROCK2)
CN1CCc2[nH]c3ncnc(C4=CCN(C(=O)Nc5cccc(F)c5)CC4)c3c2C1 [Compound 160, N-(3-Fluorophenyl)-4-(6-methyl-6,7,8,9-tetrahydro-5H-pyrido[3′,4′:4,5]pyrrolo[2,3-d]pyrimidin-4-yl)-3,6-dihydropyridine-1(2H)-carboxamide] | 1% | 1.17 µM | -9% | 2.44 µM | – | – | – | – | – | –
CN1CCc2[nH]c3ncnc(C4=CCN(C(=O)Nc5cccc(Cl)c5)CC4)c3c2C1 [Compound 161, N-(3-Chlorophenyl)-4-(6-methyl-6,7,8,9-tetrahydro-5H-pyrido[3′,4′:4,5]pyrrolo[2,3-d]pyrimidin-4-yl)-3,6-dihydropyridine-1(2H)-carboxamide] | – | 1.17 µM | – | 2.44 µM | 1% | -9% | – | – | – | –
CN1CCc2[nH]c3ncnc(C4=CCN(C(=O)Nc5cccc(Br)c5)CC4)c3c2C1 [Compound 162, N-(3-Bromophenyl)-4-(6-methyl-6,7,8,9-tetrahydro-5H-pyrido [3′,4′:4,5]pyrrolo[2,3-d]pyrimidin-4-yl)-3,6-dihydropyridine-1(2H)-carboxamide] | – | – | – | – | 4% | -8% | 0.722 µM | 1.03 µM | – | –
CC(C)(C)OC(=O)NCCCOc1cccc(-c2cccc(NC(=O)N3CC=C(c4ncnc5[nH]cc(C6CC6)c45)CC3)c2)c1 [Compound 165, tert-butyl N-[3-[3-[3-[[4-(5-cyclopropyl-7H-pyrrolo[2,3-d]pyrimidin-4-yl)-3,6-dihydro-2H-pyridine-1-carbonyl]amino]phenyl]phenoxy]propyl]carbamate] | -2% | 0.169 µM | 7% | 0.0581 µM | – | – | – | – | – | –
Cc1c[nH]c2ncnc(C3=CCN(C(=O)Nc4cccc(-c5cccc(OCCCNC(=O)OC(C)(C)C)c5)c4)CC3)c12 [Compound 166, tert-butyl N-[3-[3-[3-[[4-(5-methyl-7H-pyrrolo[2,3-d]pyrimidin-4-yl)-3,6-di hydro-2H-pyridine-1-carbonyl]amino]phenyl]phenoxy]propyl]carbamate] | 12% | 0.0946 µM | 2% | 0.122 µM | – | – | – | – | – | –
CC1=CC(C)=[N+]2C1=Cc1ccc(CCC(=O)NCCCOc3cccc(-c4cccc(NC(=O)N5CC=C(c6ncnc7[nH]c8c(c67)CCC8)CC5)c4)c3)n1[B-]2(F)F [Compound 167, N-(3′-(3-(3-(5,5-Difluoro-7,9-dimethyl-5H-dipyrrolo[1,2-c:2′,1′-f][1,3,2]diazaborinin-3-yl)propanamido)propoxy)-[1,1′-biphenyl]-3-yl)-4-(5,6,7,8-tetrahydrocyclopenta[4,5]pyrrolo[2,3-d]pyrimidin-4-yl)-3,6-dihydropyridine-1(2H)-carboxamide] | – | – | – | – | – | – | 0.112 µM | 0.113 µM | −4% | 6%
Cc1c[nH]c2ncnc(C3=CCN(C(=O)Nc4cccc(C(=O)N5CCN(S(C)(=O)=O)CC5)c4)CC3)c12 [Compound 172, 4-(5-methyl-7H-pyrrolo[2,3-d]pyrimidin-4-yl)-N-[3-(4-methylsulfonylpiperazine-1-carbonyl)phenyl]-3,6-dihydro-2H-pyridine-1-carboxamide] | 88% | 1.08 µM | 78% | 2.54 µM | – | – | – | – | – | –
Cc1c[nH]c2ncnc(C3=CCN(C(=O)Nc4cccc(OCCN5CCN(C)CC5)c4)CC3)c12 [Compound 184, 4-(5-methyl-7H-pyrrolo[2,3-d]pyrimidin-4-yl)-N-(3-(2-(4-methylpiperazin-1-yl)ethoxy)phenyl)-3,6-dihydropyridine-1(2H)-carboxamide] | 87% | 0.71 µM | 78% | 1.47 µM | – | – | – | – | – | –
Cc1c[nH]c2ncnc(C3=CCN(C(=O)Nc4cccc(OCCCN5CCN(C)CC5)c4)CC3)c12 [Compound 185, 4-(5-methyl-7H-pyrrolo[2,3-d]pyrimidin-4-yl)-N-(3-(3-(4-methylpiperazin-1-yl)propoxy)phenyl)-3,6-dihydropyridine-1(2H)-carboxamide] | 99% | 0.669 µM | 97% | 0.863 µM | – | – | – | – | – | –
Cc1c[nH]c2ncnc(C3=CCN(C(=O)Nc4cccc(OCCCNC(=O)OC(C)(C)C)c4)CC3)c12 [Compound 188, tert-Butyl (3-(3-(4-(5-methyl-7H-pyrrolo[2,3-d]pyrimidin-4-yl)-1,2,3,6-tetrahydropyridine-1-carboxamido)phenoxy)propyl)carbamate] | 48% | 0.065 µM | 33% | 0.0508 µM | – | – | – | – | – | –
Cc1c[nH]c2ncnc(C3=CCN(C(=O)Nc4cccc(OCC5CCN(C)CC5)c4)CC3)c12 [Compound 195, 4-(5-methyl-7H-pyrrolo[2,3-d]pyrimidin-4-yl)-N-(3-((1-methylpiperidin-4-yl)methoxy)phenyl)-3,6-dihydropyridine-1(2H)-carboxamide] | 99% | 0.174 µM | 93% | 0.189 µM | – | – | – | – | – | –
CNC(=O)c1cc(Oc2ccc(NC(=O)N3CC=C(c4ncnc5[nH]cc(C)c45)CC3)cc2)ccn1 [Compound 196, N-methyl-4-(4-(4-(5-methyl-7H-pyrrolo[2,3-d]pyrimidin-4-yl)-1,2,3,6-tetrahydropyridine-1-carboxamido)phenoxy)picolinamide] | 21% | 0.192 µM | 12% | 0.0493 µM | – | – | – | – | – | –
Cc1c[nH]c2ncnc(C3=CCN(C(=O)Nc4cccc(Oc5ccc(F)cc5)c4)CC3)c12 [Compound 202, N-(3-(4-fluorophenoxy)phenyl)-4-(5-methyl-7H-pyrrolo[2,3-d]pyrimidin-4-yl)-3,6-dihydropyridine-1(2H)-carboxamide] | 26% | 0.0704 µM | 15% | 0.0687 µM | – | – | – | – | – | –
Cc1c[nH]c2ncnc(C3=CCN(C(=O)Nc4cccc(Oc5ccc(Br)cc5Cl)c4)CC3)c12 [Compound 206, N-(3-(4-bromo-2-chlorophenoxy)phenyl)-4-(5-methyl-7H-pyrrolo[2,3-d]pyrimidin-4-yl)-3,6-dihydropyridine-1(2H)-carboxamide] | 13% | 0.418 µM | 3% | 0.676 µM | – | – | – | – | – | –

Continued, in another order:

inhibition at 1 µM (ROCK1; [1]) | Ki (LIMK1; Lanthascreen Eu binding assay) | inhibition at 1 µM (ROCK2; [2]) | Ki (LIMK2; Lanthascreen Eu binding assay) | Structure (SMILES) | inhibition at 1 µM (ROCK1; [3]) | inhibition at 1 µM (ROCK2; [4]) | Ki (LIMK1) | Ki (LIMK2) | % inhibition (ROCK1) 1 uM (ROCK1) | % inhibition (ROCK2) 1 uM (ROCK2)
7% | 0.0302 µM | -5% | 0.0205 µM | O=C(Nc1cccc(Oc2ccccc2)c1)N1CC=C(c2ncnc3[nH]c4c(c23)CCCC4)CC1 [Compound 126, N-(3-Phenoxyphenyl)-4-(6,7,8,9-tetrahydro-5H-pyrimido[4,5-b]indol-4-yl)-3,6-dihydropyridine-1(2H)-carboxamide] | – | – | – | – | – | –
-1% | 0.00497 µM | 4% | 0.00859 µM | COc1cccc(-c2cccc(NC(=O)N3CC=C(c4ncnc5[nH]c6c(c45)CCC6)CC3)c2)c1 [Compound 137, N-[3-(3-Methoxyphenyl)phenyl]-4-(7,9,11-triazatricyclo [6.4.0.02,6]dodeca-1(8),2(6),9,11-tetraen-12-yl)-3,6-dihydropyridine-1(2H)-carboxamide] | – | – | – | – | – | –
-2% | 0.0484 µM | 4% | 0.0412 µM | CC(C)(C)OC(=O)NCCCOc1cccc(-c2cccc(NC(=O)N3CC=C(c4ncnc5[nH]c6c(c45)CCC6)CC3)c2)c1 [Compound 164, tert-butyl (3-((3′-(4-(5,6,7,8-tetrahydrocyclopenta[4,5]pyrrolo[2,3-d]pyrimidin-4-yl)-1,2,3,6-tetrahydropyridine-1-carboxamido)-[1,1′-biphenyl]-3-yl)oxy)propyl)carbamate] | – | – | – | – | – | –
49% | 0.0336 µM | 30% | 0.15 µM | Cc1c[nH]c2ncnc(C3=CCN(C(=O)Nc4cccc(Oc5cccc(N(C)C)c5)c4)CC3)c12 [Compound 177, N-(3-(3-(dimethylamino)phenoxy)phenyl)-4-(5-methyl-7H-pyrrolo[2,3-d]pyrimidin-4-yl)-3,6-dihydropyridine-1(2H)-carboxamide] | – | – | – | – | – | –
79% | 0.00308 µM | 65% | 0.00289 µM | CNC(=O)c1cc(Oc2cccc(NC(=O)N3CC=C(c4ncnc5[nH]cc(C)c45)CC3)c2)ccn1 [Compound 198, N-methyl-4-(3-(4-(5-methyl-7H-pyrrolo[2,3-d]pyrimidin-4-yl)-1,2,3,6-tetrahydropyridine-1-carboxamido)phenoxy)picolinamide] | – | – | – | – | – | –
35% | 0.0462 µM | 13% | 0.00983 µM | Cc1c[nH]c2ncnc(C3=CCN(C(=O)Nc4cccc(Oc5cccc(F)c5)c4)CC3)c12 [Compound 200, N-(3-(3-fluorophenoxy)phenyl)-4-(5-methyl-7H-pyrrolo[2,3-d]pyrimidin-4-yl)-3,6-dihydropyridine-1(2H)-carboxamide] | – | – | – | – | – | –
71% | 0.0505 µM | 46% | 0.0156 µM | Cc1c[nH]c2ncnc(C3=CCN(C(=O)Nc4cccc(Oc5cccc(Cl)c5)c4)CC3)c12 [Compound 204, N-(3-(3-chlorophenoxy)phenyl)-4-(5-methyl-7H-pyrrolo[2,3-d]pyrimidin-4-yl)-3,6-dihydropyridine-1(2H)-carboxamide] | – | – | – | – | – | –
91% | 0.0373 µM | 72% | 0.00757 µM | Cc1c[nH]c2ncnc(C3=CCN(C(=O)Nc4cccc(Oc5cccnc5)c4)CC3)c12 [Compound 208, 4-(5-methyl-7H-pyrrolo[2,3-d]pyrimidin-4-yl)-N-(3-(pyridin-3-yloxy)phenyl)-3,6-dihydropyridine-1(2H)-carboxamide] | – | – | – | – | – | –
